According to US20180118747A1, “METHOD OF ISOLATING THEACRINE AND COMPOSITION COMPRISING THEACRINE” (ThermoLife International, LLC, priority 2017, published 2018):

Experiment: Effects of ingested theacrine versus fused theacrine as reported by human subjects
Format: in vivo
Conditions: oral ingestion
Procedure: Typically, theacrine's effects in human subjects start after 30 minutes of ingestion and last 6-8 hours.

"crash" felt when the theacrine level falls (subject-reported): feels a “crash.”
Structure (SMILES): Cn1c(=O)c2c(n(C)c1=O)n(C)c(=O)n2C [theacrine, 1,3,7,9-tetramethyluric acid]
start of theacrine's effects after ingestion: 30 min
duration of theacrine's effects (same amount of theacrine in both forms): 6 to 8 h
